Experimental data from EP3822285A1, “VARIANT NISIN PEPTIDES” (University College Cork-National University of Ireland, Cork, priority 2019, dated 2021).
Converted amounts (≈) assume the structure as drawn. “And” between values parts separate entries of the source, which are not always exact repeats. Equal values may be shown once. Marks after values point to notes of the source that are not given here.

Columns and labels:
Assay type in all cases: cell-based
Thermus scotoductus SE-1 = assay: Agar diffusion assay with cell free supernatant of producing strains; settings: zone diameter relative to Nisin A wild type (100)
Description: (§1) Agar diffusion assays were carried out in triplicate using nisin producing and indicator (T. thermophilus HB27 and T. scotoductus Se-1) strains. Both the producer and indicator strains were cultured as per conditions described above. One ml of overnight culture of indicators were added to 50ml of molten Castenholz agar, briefly swirled and poured. Wells were made using sterile glass pipette. To generate cell free supernatant from nisin producing strains, 10 mls of overnight cultures of the strains were centrifuged at 950g for 20 mins. The cell free supernatant was transferred to a sterile tube. 50 µl of cell free supernatant was added to wells described above. Plates were incubated at 55°C for 3 days and the zone of clearance measured.
(§2) The cell free supernatant of nisin A and nisin variant producing L. lactis was used to determine the bioactivity of these lantibiotics against T. thermophilus HB27 and T. scotoductus SE-1 using agar diffusion assays, with the zone of clearance representing the bioactivity of the producing strain (i.e., representing a combination of the amount of the peptide produced and the specific activity of that peptide). […] Among the variants tested were those with altered N-terminal domains. The N-terminal domain of nisin is important for binding with the pyrophosphate moiety of lipid II to mediate pore formation in the cell membrane. Lysine (K) at position 12, which serves as a small flexible region between ring B and C, and is one of among the 5 positively charged residues (K12, K22, K34, H27, […]) of nisin A that contributes to its cationic nature and its attraction to the cell envelope.

[1] = test system: Thermus thermophilus HB27; assay: as above; settings: zone diameter relative to Nisin A wild type (100)
Description: as §1, §2

T. aquaticus = assay: Minimum inhibitory concentration assay (Thermus); settings: pure peptide, mean of triplicate assays
Description: (§3) Minimum inhibitory concentration (MIC) determinations for gram negative Thermus strains were carried out in triplicate in round bottom microtitre plates (Corning). 96 well microtitre plates were pre-treated with bovine serum albumin (BSA) prior to addition of the peptides. Briefly, to each well of the microtire plates 200 µl of d.H2O (filtered with 0.2 µm filter) containing 1% (w/w) BSA was added and incubated at 37°C for 30 mins. The wells were washed with 200 µl of IX phosphate buffered saline (PBS) for 2 times after removing 1% BSA d.H2O. 100 µl of growth media, i.e., Castenholz, was added to each well. […] Target strains were grown overnight as per conditions mention above, 0.5 ml of overnight was subcultured in to 10 mls of fresh Castenholz medium and allowed to grow to an OD600 of ∼0.5. 20µl of this subculture was added to 980µl of media, 150µl of this dilution added to 14.85 ml of growth media. 100µl of this dilution added to each well resulting in a final inoculum of ∼10^5 cfu/ml in 200µl. The plates were incubated at 55° C for 3 days and the MIC was determined as the lowest concentration at which no growth was visible.
(§4) The bioactivity of cell-free supernatant can be influenced by altered diffusion rates, solubility, production or specific activity. To determine to what extent, if any, the bioactivity noted above is due to increased specific activity, nisin A (control) and the derivatives were purified and their molecular weights confirmed by MALDI TOF mass spectrometry (Table: 6) (Figure: 4). These peptides were used to perform minimum inhibitory concentration assays against six Thermus strains, i.e., T. thermophilus HB27, T. scotoductus SE-1, T. rehai, T. oshimai, T. aquaticus and T. brockianus.

T. brockianus = assay: Minimum inhibitory concentration assay (Thermus); settings: pure peptide, mean of triplicate assays
Description: as §3, §4

T. oshimai = assay: Minimum inhibitory concentration assay (Thermus); settings: pure peptide, mean of triplicate assays
Description: as §3, §4

T. rehai = assay: Minimum inhibitory concentration assay (Thermus); settings: pure peptide, mean of triplicate assays
Description: as §3, §4

T. scotoductus SE-1 = assay: Minimum inhibitory concentration assay (Thermus); settings: for MIC: pure peptide, mean of triplicate assays
Description: as §3, §4

T. thermophilus HB27 = assay: Minimum inhibitory concentration assay (Thermus); settings: pure peptide, mean of triplicate assays
Description: as §3, §4

Row | Compound | % of wild type (Thermus scotoductus SE-1) | % difference [1] | MIC (T. aquaticus) | MIC (T. brockianus) [µM] | MIC (T. oshimai) | MIC (T. rehai) | MIC (T. scotoductus SE-1) [µM] | MIC (T. thermophilus HB27) [µM] | fold better activity than nisin A (T. scotoductus SE-1) [fold]
1 | C=C(NC(=O)[C@@H](NC(=O)[C@H](Cc1c[nH]cn1)NC(=O)[C@@H](NC(=O)[C@H](CO)NC(=O)[C@@H]1CS[C@@H](C)[C@H]2NC(=O)[C@H](C)NC(=O)[C@H](NC(=O)[C@H](CCCCN)NC(=O)[C@H](CCSC)NC(=O)[C@H](CC(N)=O)NC(=O)[C@@H]3CS[C@@H](C)[C@@H](NC(=O)[C@@H](NC(=O)[C@@H]4CS[C@@H](C)[C@@H](NC(=O)[C@@H]5CSC[C@@H](NC(=O)/C(=C/C)NC(=O)[C@@H](N)[C@@H](C)CC)C(=O)N[C@@H]([C@@H](C)CC)C(=O)NC(=C)C(=O)N[C@@H](CC(C)C)C(=O)N5)C(=O)N5CCC[C@H]5C(=O)NCC(=O)N4)[C@@H](C)O)C(=O)NCC(=O)N[C@@H](C)C(=O)N[C@@H](CC(C)C)C(=O)N[C@@H](CCSC)C(=O)NCC(=O)N3)[C@H](C)SC[C@H](NC2=O)C(=O)N[C@@H](Cc2c[nH]cn2)C(=O)N1)[C@@H](C)CC)C(C)C)C(=O)N[C@@H](CCCCN)C(=O)O [K12T] | 140* (0.001) % | 148* (.001) % | 0.0312 µM (≈ 0.104 µg/mL) | 0.0625 (≈ 0.208 µg/mL) | 0.0312 µM (≈ 0.104 µg/mL) | 0.0156 µM (≈ 0.0519 µg/mL) | 0.0625 (≈ 0.208 µg/mL) | 0.0156 (≈ 0.0519 µg/mL) | 
2 | C=C(NC(=O)[C@@H](NC(=O)[C@H](Cc1c[nH]cn1)NC(=O)[C@@H](NC(=O)[C@H](CO)NC(=O)[C@@H]1CS[C@@H](C)[C@H]2NC(=O)[C@H](C)NC(=O)[C@H](NC(=O)[C@H](CCCCN)NC(=O)[C@H](CCSC)NC(=O)[C@H](CC(N)=O)NC(=O)[C@@H]3CS[C@@H](C)[C@@H](NC(=O)[C@H](CO)NC(=O)[C@@H]4CS[C@@H](C)[C@@H](NC(=O)[C@@H]5CSC[C@@H](NC(=O)/C(=C/C)NC(=O)[C@@H](N)[C@@H](C)CC)C(=O)N[C@@H]([C@@H](C)CC)C(=O)NC(=C)C(=O)N[C@@H](CC(C)C)C(=O)N5)C(=O)N5CCC[C@H]5C(=O)NCC(=O)N4)C(=O)NCC(=O)N[C@@H](C)C(=O)N[C@@H](CC(C)C)C(=O)N[C@@H](CCSC)C(=O)NCC(=O)N3)[C@H](C)SC[C@H](NC2=O)C(=O)N[C@@H](Cc2c[nH]cn2)C(=O)N1)[C@@H](C)CC)C(C)C)C(=O)N[C@@H](CCCCN)C(=O)O [K12S] | 123% | 125% | 0.0312 µM (≈ 0.103 µg/mL) | 0.0312 (≈ 0.103 µg/mL) | 0.0156 µM (≈ 0.0517 µg/mL) | 0.0156 µM (≈ 0.0517 µg/mL) | 0.0312 (≈ 0.103 µg/mL) | 0.0312 (≈ 0.103 µg/mL) | 2
3 | C=C(NC(=O)[C@@H](NC(=O)[C@H](Cc1c[nH]cn1)NC(=O)[C@@H](NC(=O)[C@H](CO)NC(=O)[C@@H]1CS[C@@H](C)[C@H]2NC(=O)[C@H](C)NC(=O)[C@H](NC(=O)[C@H](CCCCN)NC(=O)[C@H](CCC(N)=O)NC(=O)[C@H](CC(N)=O)NC(=O)[C@@H]3CS[C@@H](C)[C@@H](NC(=O)[C@H](CCCCN)NC(=O)[C@@H]4CS[C@@H](C)[C@@H](NC(=O)[C@@H]5CSC[C@@H](NC(=O)/C(=C/C)NC(=O)[C@@H](N)[C@@H](C)CC)C(=O)N[C@@H]([C@@H](C)CC)C(=O)NC(=C)C(=O)N[C@@H](CC(C)C)C(=O)N5)C(=O)N5CCC[C@H]5C(=O)NCC(=O)N4)C(=O)NCC(=O)N[C@@H](C)C(=O)N[C@@H](CC(C)C)C(=O)N[C@@H](CCSC)C(=O)NCC(=O)N3)[C@H](C)SC[C@H](NC2=O)C(=O)N[C@@H](Cc2c[nH]cn2)C(=O)N1)[C@@H](C)CC)C(C)C)C(=O)N[C@@H](CCCCN)C(=O)O [M21Q] | 124* (0.05) % | 123% | 26.1 µg/L and 0.0078 µM | 0.0156 (≈ 0.0523 µg/mL) | 6.5 µg/L and 0.00195 µM | 13 µg/L and 0.0039 µM | 0.0625 (≈ 0.209 µg/mL) | 0.0039 (≈ 0.0131 µg/mL) | 
4 | C=C(NC(=O)[C@@H](NC(=O)[C@H](Cc1c[nH]cn1)NC(=O)[C@@H](NC(=O)[C@H](CO)NC(=O)[C@@H]1CS[C@@H](C)[C@H]2NC(=O)[C@H](C)NC(=O)[C@H](NC(=O)[C@H](CCCCN)NC(=O)[C@H](Cc3ccccc3)NC(=O)[C@H](CC(N)=O)NC(=O)[C@@H]3CS[C@@H](C)[C@@H](NC(=O)[C@H](CCCCN)NC(=O)[C@@H]4CS[C@@H](C)[C@@H](NC(=O)[C@@H]5CSC[C@@H](NC(=O)/C(=C/C)NC(=O)[C@@H](N)[C@@H](C)CC)C(=O)N[C@@H]([C@@H](C)CC)C(=O)NC(=C)C(=O)N[C@@H](CC(C)C)C(=O)N5)C(=O)N5CCC[C@H]5C(=O)NCC(=O)N4)C(=O)NCC(=O)N[C@@H](C)C(=O)N[C@@H](CC(C)C)C(=O)N[C@@H](CCSC)C(=O)NCC(=O)N3)[C@H](C)SC[C@H](NC2=O)C(=O)N[C@@H](Cc2c[nH]cn2)C(=O)N1)[C@@H](C)CC)C(C)C)C(=O)N[C@@H](CCCCN)C(=O)O [M21F] | 106% | 125% | 0.0039 µM (≈ 0.0131 µg/mL) | 0.0078 (≈ 0.0263 µg/mL) | 0.00195 µM (≈ 0.00657 µg/mL) | 0.000975 µM (≈ 0.00329 µg/mL) | 0.0312 (≈ 0.105 µg/mL) | 0.0039 (≈ 0.0131 µg/mL) | 
